Measured values published in PMC12084297, “Cytoplasmic connexin43-microtubule interactions promote glioblastoma stem-like cell maintenance and tumorigenicity” (Cell Death & Disease, 2025).

Assays:
[1] = test system: VTC-034 GSCs; assay: Peptide uptake by confocal fluorescence microscopy, VTC-034 GSCs; type: in vitro ADME, human; conditions: 50 μM, 24 h, fluorophore-conjugated streptavidin
Experimental: Cells were washed once with warm PBS before fixing in 4% paraformaldehyde for 20 min at room temperature or ice-cold methanol for 5 min on ice, washed twice, and held in PBS at 4°C until immunostaining was conducted. Cells were permeabilized and blocked in 5% normal goat or donkey serum (Fisher Scientific) and 0.1% Triton X-100 in PBS for 2 h at room temperature. Primary antibodies rabbit anti-Cx43 (MilliporeSigma; C6219), mouse anti-pan Cadherin (MilliporeSigma; C1821), or mouse anti-α-tubulin (MilliporeSigma; T6199) were diluted in blocking buffer and labeling was performed overnight at 4 °C. Cells were washed six times with PBS (2 × quick, 2 × 10 min, 2 × 5 min) prior to incubating with goat anti-mouse or -rabbit IgG secondary antibodies (Thermo Fisher) conjugated to Alexa Fluor 488 (A-11029; A-11034), Alexa Fluor 555 (A-21424; A-21429), or Alexa Fluor 647 (A-21236; A-21245) for confocal; or donkey anti-mouse or -rabbit IgG secondary antibodies conjugated to CF568 (Biotium; 20105 and 20098) or Alexa Fluor 647 (Jackson Immunoresearch; 715-605-151 and 711-605-152) for stochastic optical reconstruction microscopy (STORM; see section below), for 1 h at room temperature. DAPI (Thermo Fisher) was included with secondary antibodies to counterstain nuclei for confocal only and was omitted from labeling for STORM. […]

[2] = test system: PDX GBM22 tumor; assay: TUNEL and H&E of GBM22-derived tumor sections; type: in vivo, mouse (athymic nude), human GBM22 cells; conditions: GBM22 tumors, 300 μM intratumorally every day for 14 days, harvested after 16 days
Experimental: Tumors were harvested, snap-frozen in Tissue-Tek® O.C.T. compound (Sakura), and stored at −80 °C until sectioning. […] sections were cut using a Leica CM1850 UV cryostat, placed onto Superfrost Plus^TM slides (Fisher Scientific) and fixed in −20 °C acetone for 5 minutes before air drying. Slides were stored at −80 °C prior to labeling. Tumors sections were then rehydrated in PBS for 5 min, permeabilized in 0.1% Triton X-100 in PBS for 1 h at room temperature, and washed four times with PBS (2 x quick, 2 × 5 min) prior to incubating with streptavidin conjugated to Alexa Fluor 647 (Thermo Fisher) diluted in high-salt buffer (0.5 M NaCl, 10 mM Hepes) for 30 min at room temperature. Tumor sections were then washed four times with high-salt buffer (2 x quick, 2 × 10 min), and twice with PBS (2 × 5 min) before using One-step TUNEL In Situ Apoptosis kit (Green Elab Fluor® 488; Elabscience), according to manufacturer’s instructions. Tumor sections were then washed in PBS (3 × 5 min), incubated with DAPI (Thermo Fisher) in PBS for 5 min, and washed again with PBS (4 × 5 min) before the slides were mounted using Prolong Gold Antifade (Thermo Fisher). GBM22-derived tumor sections were analyzed using fluorescence confocal microscopy on a Nikon NIE upright confocal microscope, while LN229/GSC-derived tumor sections were observed using LED illumination microscopy on a Revolve microscope. For hematoxylin and eosin (H&E) staining, tumor sections were stained using a Histo-Tek® SL Slide Stainer (Sakura), and observed using phase contrast microscopy on a Revolve microscope. Investigators were blinded for all image acquisition experiments.

[3] = test system: VTC-034 GSCs; assay: Limiting dilution analysis (ELDA), VTC-034 GSCs; type: cell-based, human; conditions: VTC-034, 100 μM every other day, 2 weeks; compared to JM2-scrambled or control
Experimental: GSCs and PDX GBM22 cells were plated as single cell suspension in low-attachment 96-well plates (GSCs: 100–500 cells per well; GBM22 cells: 500–2000 cells per well), using methods similar to those reported previously. Cells were then treated with peptides every other day. 2 weeks later, gliospheres were observed using phase contrast microscopy on a Revolve microscope (Echo Laboratories). The number of gliospheres was then determined, while the gliosphere size was assessed by diameter measurement. To evaluate stem cell frequency in GSCs, gliosphere formation assay was performed with limiting cell dilutions with cells plated at varying densities in low-attachment 96-well plates. Cells were treated with peptides every other day, and after 2 weeks, gliosphere-positive wells were observed and scored using phase contrast microscopy on a Revolve microscope. The stem cell frequency was analyzed using the online data analysis program ELDA (Extreme Limiting Dilution Analysis).
All quantification was performed on experiments repeated at least three times. Statistical analysis was conducted with GraphPad Prism (GraphPad Software). Data were analyzed for significance using Student’s t test, one-way ANOVA with Tukey’s multiple comparisons test, and presented as mean ± SD. […] Statistical significance between experimental groups was determined using chi-square (χ²) tests within the ELDA framework. […]

Sequence	Peptide localization after uptake [1]	Cell death in tumor sections (TUNEL) [2]	Cell death in tumor sections (H&E) [2]	GSC frequency / self-renewal (limiting dilution) [3]
GSDVFKRKFVDRKVG [JM2-scrambled, reference compound]	localized within the cytoplasm of GSCs	no significant correlation was observed	–	–
VFFKGVKDRVKGRSD [JM2]	localized within the cytoplasm of GSCs	Positive JM2 signal within the tumors correlated with an increase in cell death	Increased cell death within JM2-treated tumors was further confirmed	significant decrease in VTC-001, VTC-034, and VTC-037 GSC frequency
